Test results taken from US20170183306A1, “CYCLIC COMPOUNDS HAVING A 1,3 DIAMINO-FUNCTIONALITY FOR USE IN THE TREATMENT OF HIV INFECTION” (Universite Paris Descartes, priority 2014, published 2017).

Legend:
Format in all cases: cell-based
[1] = test system: wild type NL4-3 virus (HIV-1) in HeLa-p4 cells; assay: HeLa-p4 single-cycle HIV-1 infectivity, beta-galactosidase CPRG test; conditions: Human immunodeficiency virus 1, NL43, HeLaP4, 48 hours after infection, control = NL4-3 virus alone; for activity at 50 µM: read-out: Hela-p4 CPRG 50 μM; for activity at 100 µM: read-out: Hela-p4 CPRG 100 μM
Method: (§1) HeLa-p4 cells are HeLa CD4 LTR-LacZ wherein LacZ expression is induced by the trans-activating protein Tat of HIV, making possible the precise quantification of HIV-1 infectivity from a single replication cycle. HeLa-CD4 cells growing exponentially at a density of 1×10^4/mL were placed in 96-well plates and infected the following day with 1 ng of HIV p24 antigen in the presence of different concentrations of compounds. The titles for a single cycle of the viruses were determined 48 hours after infection by quantifying the beta-galactosidase activity in lysates P4 by colorimetric test (CPRG, Promega) based on the cleavage of chlorophenol red-beta-D-galactopyranoside (CPRG) by beta-galactosidase. A cell viability assay measuring the absorbance at […] using the yellow tetrazolium reagent MTS [[…]] (Promega) was carried out.
(§2) For the helap4 cells experiments, the efficacy of the compounds is determined in comparison with control cells containing wild type NL4-3 virus alone (i.e. without any added compound) and is expressed as percentage of control. Then, the viral replication was increased for several compounds at the 50 and 100 μM concentrations with an absence of cytotoxic effects at the same concentrations (MTS test) (table 1).

HeLa-p4 cells = assay: Cell viability assay (MTS) on HeLa-p4 cells
Method: as §1, §2

J-Lat cells = assay: J-Lat cells, percentage of GFP-positive cells by cytometry; conditions: 24 h, compound alone
Method: The J-Lat were grown in RPMI 1640 medium (Gibco-BRL) supplemented with 10% fetal bovine serum, 50 U/ml of penicillin, […] of streptomycin at 37 uC in a humidified 95% air/5% CO2 atmosphere. The cells were plated at 5.105 cells in a 96 well-plate. TNF ? was purchased from Immunosource. SAHA (suberoylanilide hydroxamic acid), prostratin (12-deoxyphorbol-13-acetate) and vorinostat were obtained from Sigma-Aldrich. The J-Lat cells were treated for 24 h with the different compounds alone. The cells were washed twice in PBS, re-suspended in PBS containing 4% paraformaldehyde and fixed for 30 min. Cells were next washed and re-suspended in PBS. The percentage of GFP-positive cells was measured with a LSRFortessa cytometer (Becton-Dickinson) using FACSDiva Version 6.1.3 according to the manufacturer's instructions.
The results for the J-Lat cells experiments are expressed as a percentage of the living fluorescent cells. In this model, some slight increase of viral production measured by fluorescence are quantified (table 1).

| SMILES | activity at 50 µM [1] [%] | activity at 100 µM [1] [%] | activity at 200 µM [1] [%] | Hela-p4 MTS 50 μM (HeLa-p4 cells; cell viability) | Hela-p4 MTS 100 μM (HeLa-p4 cells; cell viability) | Hela-p4 MTS 200 μM (HeLa-p4 cells; cell viability) | J-lat 50 μM (J-Lat cells) | J-lat 100 μM (J-Lat cells) | Hela-p4 MTS 50 μM (HeLa-p4 cells; human) | Hela-p4 MTS 100 μM (HeLa-p4 cells; human) |
| --- | --- | --- | --- | --- | --- | --- | --- | --- | --- | --- |
| COc1cccc(CCN2C[C@@H](N)C[C@@H](NS(C)(=O)=O)C2)c1 (racemic) [ECO02-073-C, rac-cis-N-(5-amino-1-(3-methoxyphenethyl)piperidin-3-yl) methanesulfonamide] | 151 | 205 | 417 | 100 | 99 | 79 | 0.8 percentage of the living fluorescent cells | – | – | – |
| CC(C)(C)OC(=O)N[C@@H]1C[C@H](NC(=O)OC(C)(C)C)CN(Cc2ccco2)C1 [ECO02-058-C, di-tert-butyl (1-(furan-2-ylmethyl)piperidine-3,5-diyl)dicarbamate] | 110 | 159 | 194 | 105 | 88 | 87 | 1.4 percentage of the living fluorescent cells | – | – | – |
| COC(=O)[C@@H](Cc1ccccc1)N1C[C@H](N)C[C@H](N)C1 [AB-109 F3, (R)-methyl 2-((3S,5R)-3,5-diaminopiperidin-1-yl)-3-phenylpropanoate] | 164 | 153 | 289 | 110 | 95 | 75 | 0.1 percentage of the living fluorescent cells | 4.9 percentage of the living fluorescent cells | – | – |
| N[C@@H]1C[C@H](N)CN(C23CC4CC(CC(C4)C2)C3)C1 [AB541, 1-(adamantan-1-yl)piperidine-3,5-diamine] | 158 | 157 | – | – | – | – | 0.1 percentage of the living fluorescent cells | 10.5 percentage of the living fluorescent cells | 141 | 123 |
| CN(C)c1ccc(CN2C[C@H](NC(=O)OC(C)(C)C)C[C@H](NC(=O)OC(C)(C)C)C2)cc1 [ECO02-062-C] | 239 | 269 | 401 | 91 | 84 | 73 | 0.7 percentage of the living fluorescent cells | – | – | – |
| CC(O)c1ccc(C(=O)NC(CCCCN)C(=O)N2C[C@H](N)C[C@H](N)C2)cc1 (stereo partly shown) [AB289-1, N-(6-amino-1-(3,5-diaminopiperidin-1-yl)-1-oxohexan-2-yl)-4-(1-hydroxyethyl)benzamide] | 157 | 236 | 294 | 103 | 100 | 74 | 0 percentage of the living fluorescent cells | 0.8 percentage of the living fluorescent cells | – | – |
| N[C@@H]1C[C@H](N)CN(Cc2ccco2)C1 [ECO02-065-C] | 108 | 125 | 205 | 91 | 88 | 68 | 0.5 percentage of the living fluorescent cells | – | – | – |
| N[C@@H]1C[C@H](N)CN(CCCCc2ccccc2)C1 [ECO02-026-C, 1-(4-phenylbutyl)piperidine-3,5-diamine] | 30 | 31 | – | 26 | 26 | – | 65.0 percentage of the living fluorescent cells | – | – | – |
| COc1ccc(CN2C[C@H](N)C[C@H](N)C2)cc1OC [PDA25, 1-(3,4-dimethoxybenzyl)piperidine-3,5-diamine] | 183 | 184 | 227 | 97 | 93 | 58 | 0 percentage of the living fluorescent cells | 0.2 percentage of the living fluorescent cells | – | – |
| COc1cccc(N2C[C@H](N)C[C@H](N)C2)c1 [ECO01-055-C, 1-(3-methoxyphenyl)piperidine-3,5-diamine] | 111 | 153 | – | 94 | 94 | – | 0.4 percentage of the living fluorescent cells | 0.1 percentage of the living fluorescent cells | – | – |
| N[C@@H]1C[C@H](N)CN(c2cccc(C(=O)Nc3ccccc3)c2)C1 [ECO02-003-C, 3-(3,5-diaminopiperidin-1-yl)-N-phenylbenzamide] | 140 | 118 | – | 105 | 60 | – | 0.4 percentage of the living fluorescent cells | 0.5 percentage of the living fluorescent cells | – | – |
| N[C@@H]1C[C@H](N)CN(c2ccc(C(=O)N3CCCCCC3)cc2)C1 [ECO02-007-C, azepan-1-yl(4-(3,5-diaminopiperidin-1-yl)phenyl)methanone] | 87 | 98 | – | 97 | 98 | – | 0.6 percentage of the living fluorescent cells | – | – | – |
| CS(=O)(=O)c1ccc(CCN2C[C@H](N)C[C@H](N)C2)cc1 [ECO01-039-C, 1-(4-(methylsulfonyl)phenethyl)piperidine-3,5-diamine] | 164 | 168 | – | 95 | 108 | – | 0.1 percentage of the living fluorescent cells | 0.1 percentage of the living fluorescent cells | – | – |
| N[C@@H]1C[C@H](N)CN(c2ccc(NC(=O)c3ccccc3)cc2)C1 [ECO03-002-C, N-(4-(3,5-diaminopiperidin-1-yl)phenyl)benzamide] | 120 | 165 | 317 | 115 | 116 | 74 | 0.5 percentage of the living fluorescent cells | – | – | – |
| COc1ccc(CN2C[C@H](N)C[C@H](N)C2)cc1 [AB-378, (3S,5R)-1-(4-methoxybenzyl)piperidine-3,5-diamine] | 169 | 199 | 312 | 98 | 94 | 72 | 0.2 percentage of the living fluorescent cells | 1.7 percentage of the living fluorescent cells | – | – |
| N[C@@H]1C[C@H](N)CN(C2Cc3ccccc3C2)C1 [ECO01-041-C, 1-(2,3-dihydro-1H-inden-2-yl)piperidine-3,5-diamine] | 114 | 131 | – | 98 | 84 | – | 1.0 percentage of the living fluorescent cells | 0.1 percentage of the living fluorescent cells | – | – |
| COc1cc(N2C[C@H](N)C[C@H](N)C2)cc(OC)c1OC [AB-116, (3S,5R)-1-(3,4,5-trimethoxyphenyl)piperidine-3,5-diamine] | 135 | 172 | 248 | 96 | 97 | 86 | 0 percentage of the living fluorescent cells | 0.5 percentage of the living fluorescent cells | – | – |
| CCOc1ccc(CCN2C[C@H](N)C[C@H](N)C2)cc1 [ECO02-005-C, 1-(4-ethoxyphenethyl)piperidine-3,5-diamine] | 127 | 195 | – | 106 | 97 | – | 0.5 percentage of the living fluorescent cells | 0.1 percentage of the living fluorescent cells | – | – |
| COc1ccc2[nH]cc(CCN3C[C@H](N)C[C@H](N)C3)c2c1 [AB-84, (3S,5R)-1-(2-(5-methoxy-1H-indol-3-yl)ethyl)piperidine-3,5-diamine] | 112 | 75 | – | 62 | 60 | – | 0.1 percentage of the living fluorescent cells | 6.9 percentage of the living fluorescent cells | – | – |
